Test system: PDGFR
Experiment: Rat A10 cell proliferation assay
Type: cell-based
Conditions: Table 1; Rat A10 cells, recombinant rat PDGF-BB, CellTiter-Glo after 68 hours
Protocol: Compounds of Formula (I) provided herein were assayed to measure their capacity to inhibit c-kit and PDGFR kinases using the appropriate assay described below: c-Kit inhibition was evaluated using the Mo7e cell proliferation assay, and PDGFR inhibition was evaluated using the Rat A10 cell proliferation assay and the Human TG/HA-VSMC cell proliferation assay.
Rat A10 cells (ATCC) were resuspended in DMEM supplemented with 1% FBS and 10 ng/mL recombinant rat PDGF-BB at 20,000 cells/mL. The cells were aliquoted into 384 well plates at 50 μL/well and incubated for 4 hours at 37° C. 0.5 μL of test compound 3-fold serially diluted in DMSO was added to each well. The plates were returned to the incubator for a further 68 hours. 25 μL of CellTiter-Glo (Promega) was added to each well and the plates were incubated on the bench for 15 minutes. Luminescence was then read using a CLIPR CCD camera (Molecular Devices).

Compound | IC50 [µM]
O=C(N[C@H]1CCSC[C@H]1O)c1ccc(F)c(NC(=O)c2cnc3ccccn23)c1 [F125, N-(2-fluoro-5-{[(3S,4S)-3-hydroxythian-4-yl]carbamoyl}phenyl)imidazo[1,2-a]pyridine-3-carboxamide] | 0.098
[2H]c1c([2H])c([2H])n2c(C(=O)Nc3cc(C(=O)N[C@@H]4c5ccccc5C[C@@H]4O)ccc3F)cnc2c1[2H] [F25, N-(2-fluoro-5-{[(1R,2S)-2-hydroxy-2,3-dihydro-1H-inden-1-yl]carbamoyl}phenyl)-5,6,7,8-tetrahydrogenioimidazo[1,2-a]pyridine-3-carboxamide] | 0.065
Cc1ccc2ncc(C(=O)Nc3cc(C(=O)N[C@@H]4c5ccc(F)cc5C[C@@H]4O)ccc3F)n2c1 [F28, N-(2-fluoro-5-{[(1R,2S)-5-fluoro-2-hydroxy-2,3-dihydro-1H-inden-1-yl]carbamoyl}phenyl)-6-methylimidazo[1,2-a]pyridine-3-carboxamide] | 0.129
Cc1ccc(C(=O)NC(CO)Cc2ccccc2)cc1NC(=O)c1cnc2ccccn12 (stereo not shown) [F1, N-{5-[(1-hydroxy-3-phenylpropan-2-yl)carbamoyl]-2-methylphenyl}imidazo[1,2-a]pyridine-3-carboxamide] | 0.082
Cn1nccc1-c1ccn2c(C(=O)Nc3cc(C(=O)N[C@H](CO)[C@H](O)c4ccccc4)ccc3F)cnc2c1 [F130, N-(5-{[(1R,2R)-1,3-dihydroxy-1-phenylpropan-2-yl]carbamoyl}-2-fluorophenyl)-7-(1-methyl-1H-pyrazol-5-yl)imidazo[1,2-a]pyridine-3-carboxamide] | 0.104
Cc1ccc(C(=O)N[C@H]2c3ccccc3C[C@H]2O)cc1NC(=O)c1cnc2ccccn12 [F21, N-(5-{[(1S,2R)-2-hydroxy-2,3-dihydro-1H-inden-1-yl]carbamoyl}-2-methylphenyl)imidazo[1,2-a]pyridine-3-carboxamide] | 0.095
COC[C@H](NC(=O)c1ccc(F)c(NC(=O)c2cnc3cc(-c4ccnn4C)ccn23)c1)[C@@H](O)c1ccccc1 [F129, N-(2-fluoro-5-{[(1S,2S)-1-hydroxy-3-methoxy-1-phenylpropan-2-yl]carbamoyl}phenyl)-7-(1-methyl-1H-pyrazol-5-yl)imidazo[1,2-a]pyridine-3-carboxamide] | 0.014
O=C(N[C@@H]1c2cc(F)ccc2C[C@@H]1O)c1ccc(F)c(NC(=O)c2cnc3ccc(F)cn23)c1 [F113, 6-fluoro-N-(2-fluoro-5-{[(1R,2S)-6-fluoro-2-hydroxy-2,3-dihydro-1H-inden-1-yl]carbamoyl}phenyl)imidazo[1,2-a]pyridine-3-carboxamide] | 0.113
O=C(N[C@@H]1c2ccccc2C[C@@H]1O)c1ccc(F)c(NC(=O)c2cnc3cc(F)ccn23)c1 [F18, 7-fluoro-N-(2-fluoro-5-{[(1R,2S)-2-hydroxy-2,3-dihydro-1H-inden-1-yl]carbamoyl}phenyl)imidazo[1,2-a]pyridine-3-carboxamide] | 0.086
CCC[C@@H](CO)NC(=O)c1ccc(F)c(NC(=O)c2cnc3ccccn23)c1 [F110, N-(2-fluoro-5-{[(2S)-1-hydroxypentan-2-yl]carbamoyl}phenyl)imidazo[1,2-a]pyridine-3-carboxamide] | 0.115
Cc1ccc(C(=O)NCc2ccccc2N2CCC(O)C2)cc1NC(=O)c1cnc2ccccn12 (stereo not shown) [F31, N-[5-({[2-(3-hydroxypyrrolidin-1-yl)phenyl]methyl}carbamoyl)-2-methylphenyl]imidazo[1,2-a]pyridine-3-carboxamide] | 0.042

Same assay, conditions: Table 2; Rat A10 cells, recombinant rat PDGF-BB, CellTiter-Glo after 68 hours

Compound | IC50 [µM]
O=C(N[C@H](CO)CC1CCCCC1)c1cccc(NC(=O)c2cnc3ccccn23)c1 [F48, N-(3-{[(2S)-1-cyclohexyl-3-hydroxypropan-2-yl]carbamoyl}phenyl)imidazo[1,2-a]pyridine-3-carboxamide] | 0.363
Cc1ccc2ncc(C(=O)Nc3cc(C(=O)N[C@H]4c5ccccc5C[C@H]4O)ccc3F)n2c1 [F36, N-(2-fluoro-5-{[(1S,2R)-2-hydroxy-2,3-dihydro-1H-inden-1-yl]carbamoyl}phenyl)-6-methylimidazo[1,2-a]pyridine-3-carboxamide] | 0.234
CCC[C@@H](CO)NC(=O)c1cccc(NC(=O)c2cnc3ccccn23)c1 [F57, N-(3-{[(2S)-1-hydroxypentan-2-yl]carbamoyl}phenyl)imidazo[1,2-a]pyridine-3-carboxamide] | 0.522
Cc1ccc2ncc(C(=O)Nc3cc(C(=O)N[C@@H]4c5ccccc5C[C@@H]4O)c(C)cc3F)n2c1 [F88, N-(2-fluoro-5-{[(1R,2S)-2-hydroxy-2,3-dihydro-1H-inden-1-yl]carbamoyl}-4-methylphenyl)-6-methylimidazo[1,2-a]pyridine-3-carboxamide] | 2.19
O=C(N[C@H]1CC[C@H](O)CC1)c1cccc(NC(=O)c2cnc3ccccn23)c1 [F76, N-{3-[(4-hydroxycyclohexyl)carbamoyl]phenyl}imidazo[1,2-a]pyridine-3-carboxamide] | 9.42
O=C(NC(CO)c1ccccc1)c1cccc(NC(=O)c2cnc3ccccn23)c1 (stereo in doubt) [F44, N-(3-{[(1S)-2-hydroxy-1-phenylethyl]carbamoyl}phenyl)imidazo[1,2-a]pyridine-3-carboxamide] | 0.311
Cc1ccc2ncc(C(=O)Nc3cc(C(=O)N[C@@H]4c5ccccc5C[C@@H]4O)c(F)cc3F)n2c1 [F87, N-(2,4-difluoro-5-{[(1R,2S)-2-hydroxy-2,3-dihydro-1H-inden-1-yl]carbamoyl}phenyl)-6-methylimidazo[1,2-a]pyridine-3-carboxamide] | 2.86
CC(C)(CO)NC(=O)c1ccc(F)c(NC(=O)c2cnc3ccccn23)c1 [F98, N-{2-fluoro-5-[(1-hydroxy-2-methylpropan-2-yl)carbamoyl]phenyl}imidazo[1,2-a]pyridine-3-carboxamide] | > 10
O=C(N[C@H]1c2ccccc2C[C@H]1O)c1ccc(F)c(NC(=O)c2cnc3ccc(COCC(F)(F)F)cn23)c1 [F70, N-(2-fluoro-5-{[(1S,2R)-2-hydroxy-2,3-dihydro-1H-inden-1-yl]carbamoyl}phenyl)-6-[(2,2,2-trifluoroethoxy)methyl]imidazo[1,2-a]pyridine-3-carboxamide] | 2.09
Cc1ccc2ncc(C(=O)Nc3cc(C(=O)N[C@@H]4c5ccccc5C[C@@H]4O)c(Cl)cc3F)n2c1 [F85, N-(4-chloro-2-fluoro-5-{[(1R,2S)-2-hydroxy-2,3-dihydro-1H-inden-1-yl]carbamoyl}phenyl)-6-methylimidazo[1,2-a]pyridine-3-carboxamide] | 4.02
CC[C@@H](CO)NC(=O)c1cccc(NC(=O)c2cnc3ccccn23)c1 [F79, N-(3-{[(2S)-1-hydroxybutan-2-yl]carbamoyl}phenyl)imidazo[1,2-a]pyridine-3-carboxamide] | > 10
O=C(N[C@H]1CCCC[C@H]1CO)c1ccc(F)c(NC(=O)c2cnc3ccccn23)c1 [F59] | 0.603
O=C(NC[C@@H](O)c1ccccc1)c1ccc(F)c(NC(=O)c2cnc3ccccn23)c1 [F94, N-(2-fluoro-5-{[(2S)-2-hydroxy-2-phenylethyl]carbamoyl}phenyl)imidazo[1,2-a]pyridine-3-carboxamide] | 0.239
O=C(N[C@@H]1CCSC[C@H]1O)c1ccc(F)c(NC(=O)c2cnc3ccccn23)c1 [F105, N-(2-fluoro-5-{[(3S,4R)-3-hydroxythian-4-yl]carbamoyl}phenyl)imidazo[1,2-a]pyridine-3-carboxamide] | 0.84
O=C(N[C@@H]1c2ccccc2C[C@@H]1O)c1ccc(F)c(NC(=O)c2cnc3cc(C(F)(F)F)ccn23)c1 (stereo in doubt) [F40, N-(2-fluoro-5-{[(1R,2S)-2-hydroxy-2,3-dihydro-1H-inden-1-yl]carbamoyl}phenyl)-7-(trifluoromethyl)imidazo[1,2-a]pyridine-3-carboxamide] | 0.261
CC(C)(O)[C@@H]1CCCC[C@@H]1NC(=O)c1ccc(F)c(NC(=O)c2cnc3ccccn23)c1 [F106, N-(2-fluoro-5-{[(1S,2R)-2-(2-hydroxypropan-2-yl)cyclohexyl]carbamoyl}phenyl)imidazo[1,2-a]pyridine-3-carboxamide] | 0.813
C[C@H](NC(=O)c1ccc(F)c(NC(=O)c2cnc3ccccn23)c1)[C@@H](O)c1ccccc1 [F95, N-(2-fluoro-5-{[(1S,2S)-1-hydroxy-1-phenylpropan-2-yl]carbamoyl}phenyl)imidazo[1,2-a]pyridine-3-carboxamide] | 0.219
O=C(N[C@@H]1c2cc(Cl)ccc2C[C@@H]1O)c1ccc(F)c(NC(=O)c2cnc3ccc(F)cn23)c1 (stereo in doubt) [F42, N-(5-{[(1R,2S)-6-chloro-2-hydroxy-2,3-dihydro-1H-inden-1-yl]carbamoyl}-2-fluorophenyl)-6-fluoroimidazo[1,2-a]pyridine-3-carboxamide] | 0.277
C[C@@H]1CC[C@H](O)[C@H](C)N1CCNC(=O)c1ccc(F)c(NC(=O)c2cnc3cc(-c4ccnn4C)ccn23)c1 [F109, N-[2-fluoro-5-({2-[(2S,3S,6R)-3-hydroxy-2,6-dimethylpiperidin-1-yl]ethyl}carbamoyl)phenyl]-7-(1-methyl-1H-pyrazol-5-yl)imidazo[1,2-a]pyridine-3-carboxamide] | 0.295
[2H]c1c([2H])c([2H])n2c(C(=O)Nc3cc(C(=O)N[C@@H]4c5ccccc5C[C@@H]4O)ccc3F)cnc2c1[2H] [F83, N-(2-fluoro-5-{[(1R,2S)-2-hydroxy-2,3-dihydro-1H-inden-1-yl]carbamoyl}phenyl)-5,6,7,8-tetrahydrogenioimidazo[1,2-a]pyridine-3-carboxamide] | 0.289
